Test results published in the NIST ThermoML archive (doi:10.1021/je700398k).

Settings: Liquid

ClCC1CO1 (stereo unspecified) [1-chloro-2,3-epoxypropane]
Settings	vapor or sublimation pressure [kPa]
315.67 K	5.916
316.53 K	6.183
318.81 K	6.915
321.9 K	8.015
324.03 K	8.859
327.03 K	10.18
330.21 K	11.74
334.22 K	14.01
334.77 K	14.32
337.79 K	16.3
339.71 K	17.66
343.98 K	21.05
345.99 K	22.82
347.15 K	23.9
350.87 K	27.61
352.3 K	29.16
354.46 K	31.66
357.56 K	35.49
359.92 K	38.7
363.28 K	43.68
367.42 K	50.42
371.36 K	57.63
375.06 K	65.2
388.29 K	98.82

CN1CCCC1=O [N-methylpyrrolidone]
Settings	vapor or sublimation pressure [kPa]
380.73 K	4.742
383.12 K	5.24
386.38 K	5.98
387.92 K	6.361
389.88 K	6.862
393.04 K	7.775
400.46 K	10.29
403.85 K	11.62
406.68 K	12.87
408.96 K	13.96
411.42 K	15.22
413.77 K	16.5
416.81 K	18.28
420.94 K	20.97
424.65 K	23.65
427.56 K	25.96
432.29 K	30.08
435.85 K	33.54
439.12 K	36.99
441.74 K	39.96
444.04 K	42.73
446.64 K	46.02
451.08 K	52.18
457.46 K	62.11
475.72 K	99.4

CN1CCCCCC1=O [1-methylazacycloheptan-2-one]
Settings	vapor or sublimation pressure [kPa]
402.95 K	4.019
405.13 K	4.39
411.63 K	5.651
415.53 K	6.531
420.7 K	7.906
424.29 K	8.986
428.38 K	10.38
430.35 K	11.12
434.66 K	12.84
436.35 K	13.6
443.09 K	16.89
450.68 K	21.39
458.3 K	26.82
462.79 K	30.5
468.95 K	36.27
479.21 K	47.69
510.6 K	101.4
